Experimental data: patent US20190216707A1, “COMPOSITION FOR PREVENTING HAIR LOSS AND PROMOTING HAIR GROWTH, COMPRISING PHYTOESTROGEN AS AN ACTIVE INGREDIENT” (STEMORE CO., LTD., priority 2016, published 2019)

Key:
[1] = system: immortalized dermal papilla cells (I-DPCs); assay: Proliferation of immortalized dermal papilla cells (Incucyte, phase object confluence); format: cell-based, Human; settings: FIGS. 1A to 1D; for effect on the proliferation of I-DPCs (phase object confluence, %): 0.1 μM, 1 μM or 10 μM, cultured for 72 hours; for proliferation of I-DPCs: concentration of 1 μM to 10 μM
Method: Human-derived immortalized dermal papilla cells (I-DPCs; donated by Professor Sungyoung Kwan of the College of Medicine at Kyungpook National University; Shin, Seung-Hyun, et al. “Establishment and characterization of an immortalized human dermal papilla cell line.” BMB reports 44.8 (2011): 512-516.) were cultured in Follicle Dermal Papilla Cell Growth Medium supplemented with 10% fetal bovine serum […] and penicillin-streptomycin antibiotics for 3 days to prepare a dermal papilla cell line. On day 3 of culture, the cells cultured in the culture dish were transferred to a 96-well plate, and when the cells were attached to the bottom of each well, each well was treated with DO-10B, DO-14, DO-17, and DO-20 at a concentration of 10 μM and cultured for 48 hours.
In particular, the I-DP cell line was prepared by culturing under the same conditions as in Example <2-1>, and the cells were treated with DO-10B, DO-14, DO-17, and DO-20 at a concentration of 0.1 μM, 1 μM, or 10 μM in a cell culture medium, and then cultured for a total of 72 hours. At 0, 12, 24, 36, 48, 60, and 72 hours after the start of culture, the degree of saturation of cells attached to the bottom of each well (phase object confluence, %) was confirmed using the Incucyte System™.

C3H/HeNCrljOri mice = assay: Hair growth promotion on the hair-removed back of mice; format: in vivo; settings: PBS containing 1 μM compound subcutaneously injected, 2 weeks; for hair cycle induction / hair growth, visually confirmed, compared to the non-administered group: FIG. 2; for hair weight compared with the minoxidil-administered control / hair weight relative to the non-administered control: FIG. 3
Excerpt: In particular, to confirm the effects of DO-10B, DO-14, DO-17, and DO-20 on hair growth promotion when applied and subcutaneously administered, 6-week-old male C3H/HeNCrljOri mice were purchased and divided into a negative control, a positive control (minoxidil-treated group), and groups treated with DO-10B, DO-14, DO-17, and DO-20 to be used for experiments. To confirm a hair growth effect in the mice, when the mice became 6 weeks of age, first, the hair of the back of each mouse was removed using a clipper.
To confirm the effects of DO-10B, DO-14, DO-17, and DO-20 on hair growth promotion when subcutaneously injected, PBS containing 1 μM DO-10B, DO-14, DO-17, and DO-20 was subcutaneously injected into the hair-removed backs of mice at a daily cycle of 2 to 3 times, and the mice were raised for a total of 2 weeks. After the end of the rearing period, the hair of the back of each mouse was removed again using a mouse clipper, and the weight of the collected hair was measured to compare the hair weights of the non-administered group and the minoxidil-administered group.

Compound | effect on the proliferation of I-DPCs (phase object confluence, %) [1] | proliferation of I-DPCs [1] | hair cycle induction (C3H/HeNCrljOri mice) | hair growth, visually confirmed, compared to the non-administered group (C3H/HeNCrljOri mice) | hair weight compared with the minoxidil-administered control (C3H/HeNCrljOri mice) | hair weight relative to the non-administered control (C3H/HeNCrljOri mice)
COc1ccc2c(c1)OC1c3ccc(O)cc3OCC21 (stereo not drawn) [DO-20, 3-hydroxy-9-methoxypterocarpan] | concentration-dependent manner | significantly promoted | induced to the anagen phase | significant hair growth | equal to or greater than that of the minoxidil-administered control | about two-fold or more
violanone [DO-10B] | concentration-dependent manner | significantly promoted | induced to the anagen phase | significant hair growth | equal to or greater than that of the minoxidil-administered control | about two-fold or more
COc1cc2c(cc1O)[C@@H]1COc3cc(O)ccc3[C@@H]1O2 [DO-17, (6aR, 11aR)-3,8-dihydroxy-9-methoxypterocarpan] | concentration-dependent manner | significantly promoted | induced to the anagen phase | significant hair growth | equal to or greater than that of the minoxidil-administered control | about two-fold or more
(3R)-5′-methoxyvestiol [DO-14] | concentration-dependent manner | significantly promoted | induced to the anagen phase | significant hair growth | equal to or greater than that of the minoxidil-administered control | about two-fold or more
